Publication PMC12175894 (Science Advances, 2025)

Molecular target: orexin OX1 (Homo sapiens, UniProt O43613)
Assay: Radioligand displacement, [3H]SB674042

Sequence of orexin OX1 (O43613 whole entry): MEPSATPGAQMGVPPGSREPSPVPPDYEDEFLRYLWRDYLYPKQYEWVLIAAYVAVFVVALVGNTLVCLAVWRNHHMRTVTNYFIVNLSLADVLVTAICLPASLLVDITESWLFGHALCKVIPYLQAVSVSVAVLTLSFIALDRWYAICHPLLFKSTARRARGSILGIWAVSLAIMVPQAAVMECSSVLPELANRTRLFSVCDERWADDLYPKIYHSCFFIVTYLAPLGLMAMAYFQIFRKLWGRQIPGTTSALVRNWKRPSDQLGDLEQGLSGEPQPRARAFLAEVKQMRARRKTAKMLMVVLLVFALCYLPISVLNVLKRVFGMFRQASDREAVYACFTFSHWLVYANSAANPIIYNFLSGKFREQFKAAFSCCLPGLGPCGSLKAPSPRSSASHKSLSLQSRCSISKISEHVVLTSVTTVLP

## COc1ccccc1OCCNCCCOc1ccc2c(c1)NC(=O)CO2 [ST171]
Ki [nM ± SD]
  Ki: > 50000 nM
pKi
  Ki: > 50100 nM
